US12202801B1 (priority 2023, dated 2025)

System: Mycobacterium tuberculosis H37Rv
Test: Resazurin Microplate Assay (REMA), anti-tubercular activity, H37Rv strain
Assay type: cell-based
Details: 192 h, read-out: Anti-tubercular activity against Mycobacterium tuberculosis (MIC), H37Rv

## N#Cc1ccc(C(=O)C[n+]2ccc(C#N)cc2)cc1.[Br-] [Compound 3f, 4-Cyano-1-(2-(4-cyanophenyl)-2-oxoethyl)pyridin-1-ium bromide]
  MIC: 1 µg/mL
